According to patent US5128331A, “Method for lowering plasma lipid levels or blood pressure” (priority 1988, dated 1992):
“Also recorded” adds a separate entry of the source. Like-named read-outs stand apart in the source and are kept apart here.

Legend:
Assay type in all cases: in vivo
[1] = system: spontaneously hypertensive rat (SHR); assay: Oral hypotensive activity in spontaneously hypertensive rats (SHR); conditions: for Percent change in blood pressure: 2 hours post dose, Table 5
Procedure: The spontaneously hypertensive rat (SHR) is a well established animal model of human arterial hypertension.
In screening experiments various gem-diphosphonates were dissolved in Tween-80 and administered orally to SH rats. Blood pressure was monitored hourly using a tailcuff method.

mice of the OF1 strain = assay: Hypolipidemic activity: plasma cholesterol and plasma triglycerides in mice fed compound in chow; conditions: for change in vivo at 180 mg/kg: Mus musculus, feed or water, 240 h
Procedure: With the goal of finding new drugs which might be hypolipidemic, the new diphosphonates described in this patent application were administered orally to mice. This rodent species has plasma lipid level relatively close to man (generally greater than 150 mg/dl). For example, in mice receiving a normal diet the plasma cholesterol and triglyceride levels are in the range of 100 mg/dl, whereas for rat the comparative values are close to 50 mg/dl.
In every screening experiment, 30 mice of the OF1 strain weighing 25 to 35 g were divided into 5 groups of 6 animals each. Four groups received the compounds to be tested, or the reference drugs, the fifth group served as control. Compounds were dissolved in diethyl ether, and solution was added to the pelleted food and the ether was evaporated.
All compounds were tested at the final concentration of 0.1% in animal chow, equivalent to a daily intake of about 180 mg/kg. This diet was fed for 10 days, then after an overnight fasting the animals were sacrified by decapitation under ether anesthesia. Blood samples were collected in EDTA containing tubes.
Plasma cholesterol and plasma triglycerides were measured by enzymatic methods (Ames kit No. 6376 and No. 6630).

rat paw oedema = assay: Anti-inflammatory activity: kappa carrageenan rat paw oedema model; conditions: for Inhibition of rat right hind paw volume increase, % Change from control: 4 hours post oedema induction, test compounds 100 mg/kg, indomethacin 30 mg/kg by gavage 1 hour prior; for anti-inflammatory activity (in words): rat paw oedema, 4 hours
Procedure: The effect of four selected diphosphates was investigated on the inflammatory response to kappa carrageenan in the rat paw oedema model. Eight male rats were employed per group. Oedema was induced in the right hind paw of each animal by a single injection into the plantar aponeurosis of 0.1 ml of a 1% w/v of kappa carrageena solution dissolved in 0.9% NaCl. The test compounds (100 mg/kg) and reference drug (indomethacin 30 mg/kg) were administered by gavage 1 hour prior to induction of oedema by carrageanan injection.
The volume of the right paw was measured for each animal at 0, 1, 2.5 and 4 hours after carrageenan injection (only 4 hour values are reported.

[2] = read-out: Cholesterol (% control)
[3] = read-out: Triglycerides (% control)
[4] = mice, 0.1% in animal chow (about 180 mg/kg daily), 10 days, Table 3, given as change from control, read-out: Cholesterol (% control)
[5] = mice, 0.1% in animal chow (about 180 mg/kg daily), 10 days, Table 3, given as change from control, read-out: Triglycerides (% control)

SMILES: CCOP(=O)(OCC)C(Cc1cc(C(C)CC)c(O)c(C(C)CC)c1)P(=O)(OCC)OCC (centres unmarked) [Compound 3]
- Percent change in blood pressure [1]: -20%
- change in vivo at 180 mg/kg (mice of the OF1 strain; [2]): -19%
- change in vivo at 180 mg/kg (mice of the OF1 strain; [3]): -46%
- decreased plasma triglycerides by (mice of the OF1 strain; mice, 0.1% in chow, 10 days): more than 44%
- hypocholesterolemic activity (in words) (mice of the OF1 strain; mice, 0.1% in chow, 10 days): hypocholesterolemic
- hypotriglyceridemia (in words) (mice of the OF1 strain; mice, 0.1% in chow, 10 days): significant hypotriglyceridemia

SMILES: CCOP(=O)(OCC)C(Cc1cc(C(C)(C)C)c(O)c(C(C)(C)C)c1)P(=O)(OCC)OCC [Compound 4, Tetraethyl 2-(3,5-ditertiarybutyl-4-hydroxyphenyl)-ethylidene-1,1-diphosphonate]
- hypotensive potency compared with reference drugs (in words) [1]: as potent as the reference drugs
- Percent change in blood pressure [1]: -34%
- change in vivo at 180 mg/kg (mice of the OF1 strain; [2]): -12%
- change in vivo at 180 mg/kg (mice of the OF1 strain; [3]): -1%
- hypocholesterolemic activity (in words) (mice of the OF1 strain; mice, 0.1% in chow, 10 days): hypocholesterolemic
- Inhibition of rat right hind paw volume increase, % Change from control (rat paw oedema): +1.5 % Change from control

SMILES: CC(C)OP(=O)(OC(C)C)C(Cc1cc(C(C)(C)C)c(O)c(C(C)(C)C)c1)P(=O)(OC(C)C)OC(C)C [Compound 6]
- hypotensive potency compared with reference drugs (in words) [1]: as potent as the reference drugs
- Percent change in blood pressure [1]: -64%
- change in vivo at 180 mg/kg (mice of the OF1 strain; [2]): -37%
- change in vivo at 180 mg/kg (mice of the OF1 strain; [3]): -34%
- hypocholesterolemic activity (in words) (mice of the OF1 strain; mice, 0.1% in chow, 10 days): hypocholesterolemic
- hypotriglyceridemia (in words) (mice of the OF1 strain; mice, 0.1% in chow, 10 days): significant hypotriglyceridemia

SMILES: CCCCOP(=O)(OCCCC)C(Cc1cc(C(C)(C)C)c(O)c(C(C)(C)C)c1)P(=O)(OCCCC)OCCCC [Compound 7, Tetrabutyl 2-(3,5-ditertiary-4-hydroxyphenyl)-ethylidene-1,1-diphosphonate]
- hypotensive potency compared with reference drugs (in words) [1]: as potent as the reference drugs
- Percent change in blood pressure [1]: -30%
- change in vivo at 180 mg/kg (mice of the OF1 strain; [2]): -23%
- change in vivo at 180 mg/kg (mice of the OF1 strain; [3]): -15%
- hypocholesterolemic activity (in words) (mice of the OF1 strain; mice, 0.1% in chow, 10 days): hypocholesterolemic
- hypotriglyceridemia (in words) (mice of the OF1 strain; mice, 0.1% in chow, 10 days): significant hypotriglyceridemia

SMILES: CC(C)(C)c1cc(CC(P(=O)(O)O)P(=O)(O)O)cc(C(C)(C)C)c1O [Compound 8, 2-(3,5-ditertiarybutyl-4-hydroxyphenyl)-ethylidene-1,1-diphosphonic acid]
- change in vivo at 180 mg/kg (mice of the OF1 strain; [4]): -2%
- change in vivo at 180 mg/kg (mice of the OF1 strain; [5]): 19%
- Inhibition of rat right hind paw volume increase, % Change from control (rat paw oedema): -54.2 % Change from control
- anti-inflammatory activity (in words) (rat paw oedema): significant inhibitory activities; also recorded: anti-inflammatory

SMILES: CCCCOP(=O)(OCCCC)C(Cc1cc(C(C)(C)C)c(O)c(C(C)(C)C)c1)P(=O)(OCC)OCC (centres unmarked) [Compound 18]
- hypotensive potency compared with reference drugs (in words) [1]: as potent as the reference drugs
- Percent change in blood pressure [1]: -41%
- change in vivo at 180 mg/kg (mice of the OF1 strain; [2]): -31%
- change in vivo at 180 mg/kg (mice of the OF1 strain; [3]): 60%
- hypocholesterolemic activity (in words) (mice of the OF1 strain; mice, 0.1% in chow, 10 days): hypocholesterolemic

SMILES: CCOP(=O)(OCC)C(=Cc1cc(C(C)(C)C)c(O)c(C(C)(C)C)c1)P(=O)(OCC)OCC [Compound 33, Tetraethyl 2-(3,5-ditertiarybutyl-4-hydroxyphenyl)-ethenylidene-1,1-diphosphonate]
- change in vivo at 180 mg/kg (mice of the OF1 strain; [2]): -40%
- change in vivo at 180 mg/kg (mice of the OF1 strain; [3]): -21%
- hypocholesterolemic activity (in words) (mice of the OF1 strain; mice, 0.1% in chow, 10 days): hypocholesterolemic
- hypocholesterolemic potency (plasma cholesterol change) (mice of the OF1 strain; mice, 0.1% in chow, 10 days): -40%
- hypotriglyceridemia (in words) (mice of the OF1 strain; mice, 0.1% in chow, 10 days): significant hypotriglyceridemia
- Inhibition of rat right hind paw volume increase, % Change from control (rat paw oedema): -5.8 % Change from control

SMILES: CC(C)(C)c1cc(C=C(P(=O)(O)O)P(=O)(O)O)cc(C(C)(C)C)c1O [Compound 36]
- change in vivo at 180 mg/kg (mice of the OF1 strain; [4]): -9%
- change in vivo at 180 mg/kg (mice of the OF1 strain; [5]): -5%
- Inhibition of rat right hind paw volume increase, % Change from control (rat paw oedema): -25.0 % Change from control
- anti-inflammatory activity (in words) (rat paw oedema): significant inhibitory activities

SMILES: COc1ccc([C@@H]2Sc3ccccc3N(CCN(C)C)C(=O)[C@@H]2OC(C)=O)cc1 [Diltiazem, reference compound]
- Percent change in blood pressure [1]: -38%

SMILES: Cc1ccc(C)c(OCCCC(C)(C)C(=O)O)c1 [Gemfibrozil, reference compound]
- change in vivo at 180 mg/kg (mice of the OF1 strain; [4]): -7%
- change in vivo at 180 mg/kg (mice of the OF1 strain; [5]): -35%
- hypocholesterolemic activity (in words) (mice of the OF1 strain; mice, 0.1% in chow, 10 days): less hypocholesterolemic than many of the diphosphonates tested
- hypotriglyceridemic potency (plasma triglyceride change) (mice of the OF1 strain; mice, 0.1% in chow, 10 days): -35%

SMILES: COc1ccc2c(c1)c(CC(=O)O)c(C)n2C(=O)c1ccc(Cl)cc1 [Indomethacin, reference compound]
- Inhibition of rat right hind paw volume increase, % Change from control (rat paw oedema): -92.3 % Change from control
- anti-inflammatory activity (in words) (rat paw oedema): prevented completely the increase in paw volume
